# Assay results reported in US20220031697A1, “Dose and regimen for an hdm2-p53 interaction inhibitor in hematological tumors” (Novartis AG, priority 2017, published 2022).
# “And” between values parts separate entries of the source, which are not always exact repeats. Equal values may be shown once. Read-outs that look alike come from different tables or passages of the source.
# Test system: patients with hematological tumors
# [1] = 1A 250 mg N=10, cut-off 15 Jan. 2018
# [2] = 1B 120 mg N=23, cut-off 15 Jan. 2018
# [3] = 2C 45 mg N=25, cut-off 15 Jan. 2018
# From the text: Herein, data are disclosed from this multicenter, open-label, first-in-human Phase I study of HDM201 in patients with advanced TP53 wild-type (WT) leukemias.
# The clinical study design allowed parallel exploration of the safety, tolerability, and clinical activity (efficacy) of two broad dosing strategies for HDM201 during dose escalation: intermittent high dose regimens (Regimen 1A and 1B) and extended low dose regimens (Regimen 2A and 2C).
# This clinical study utilized a Bayesian logistic regression model (BLRM) to support dose escalation and estimate the MTD for HDM201. The BLRM enables incorporation of available prior information and updates the model parameters based upon the DLTs observed in the clinical study at varied doses in evaluable patients.
smiles,measurement,setting,value
"COc1ncc(-c2nc3c(n2C(C)C)[C@H](c2ccc(Cl)cc2)N(c2cc(Cl)cn(C)c2=O)C3=O)c(OC)n1 [HDM201, (S)-5-(5-Chloro-1-methyl-2-oxo-1,2-dihydro-pyridin-3-yl)-6-(4-chloro-phenyl)-2-(2,4-dimethoxy-pyrimidin-5-yl)-1-isopropyl-5,6-dihydro-1H-pyrrolo[3,4-d]imidazol-4-one]","Abdominal Discomfort, Grade 3/4",,0 n (%)
same,"Abdominal Pain Upper, Grade 3/4",,0 n (%)
same,"Abdominal Pain, Grade 3/4",,0 n (%)
same,"Amylase Increased, Grade 3/4",,0 n (%)
same,"Arthralgia, Grade 3/4",,0 n (%)
same,"Asthenia, Grade 3/4",,0 n (%)
same,"Atrial Fibrillation, Grade 3/4",,0 n (%)
same,"Atypical Pneumonia, Grade 3/4",,0 n (%)
same,"Balanitis Candida, Grade 3/4",,0 n (%)
same,"Blood Alkaline Phosphatase Increased, Grade 3/4",,0 n (%)
same,"Blood Bilirubin Increased, Grade 3/4",,0 n (%)
same,"Blood Phosphorus Increased, Grade 3/4",,0 n (%)
same,"Cardiac Failure, Grade 3/4",,0 n (%)
same,"Conjunctival Haemorrhage, Grade 3/4",,0 n (%)
same,"Constipation, Grade 3/4",,0 n (%)
same,"Cough, Grade 3/4",,0 n (%)
same,"Cystitis Viral, Grade 3/4",,0 n (%)
same,"Cytomegalovirus Infection, Grade 3/4",,0 n (%)
same,"Decreased Appetite, Grade 3/4",,0 n (%)
same,"Diarrhoea, Grade 3/4",,0 n (%)
same,"Dyspepsia, Grade 3/4",,0 n (%)
same,"Epistaxis, Grade 3/4",,0 n (%)
same,"Fatigue, Grade 3/4",,0 n (%)
same,"General Physical Health Deterioration, Grade 3/4",,0 n (%)
same,"Gingival Bleeding, Grade 3/4",,0 n (%)
same,"Graft Versus Host Disease, Grade 3/4",,0 n (%)
same,"Haemoglobin Decreased, Grade 3/4",,0 n (%)
same,"Headache, Grade 3/4",,0 n (%)
same,"Hyperbilirubinaemia, Grade 3/4",,0 n (%)
same,"Hyperglycaemia, Grade 3/4",,0 n (%)
same,"Hyperphosphataemia, Grade 3/4",,0 n (%)
same,"Hyperuricaemia, All Grades",,2 n (%) and 2 (33.3) n (%) and 1 (14.3) n (%)
same,"Hypoalbuminaemia, Grade 3/4",,0 n (%)
same,"Hypocalcaemia, Grade 3/4",,0 n (%)
same,"Hypokalaemia, Grade 3/4",,0 n (%)
same,"Hypomagnesaemia, Grade 3/4",,0 n (%)
same,"Hyponatraemia, Grade 3/4",,0 n (%)
same,"Hypotension, Grade 3/4",,0 n (%)
same,"Infective Glossitis, Grade 3/4",,0 n (%)
same,"Influenza Like Illness, Grade 3/4",,0 n (%)
same,"Iron Overload, Grade 3/4",,0 n (%)
same,"Lip Oedema, Grade 3/4",,0 n (%)
same,"Malaise, Grade 3/4",,0 n (%)
same,"Mouth Haemorrhage, Grade 3/4",,0 n (%)
same,"Nausea, Grade 3/4",,0 n (%)
same,"Oedema Peripheral, Grade 3/4",,0 n (%)
same,"Oedema, Grade 3/4",,0 n (%)
same,"Oral Disorder, Grade 3/4",,0 n (%)
same,"Pain In Extremity, Grade 3/4",,0 n (%)
same,"Pneumonia, Grade 3/4",,0 n (%)
same,"Pollakiuria, Grade 3/4",,0 n (%)
same,"Pyrexia, Grade 3/4",,0 n (%)
same,"Rash Erythematous, Grade 3/4",,0 n (%)
same,"Rash Papular, Grade 3/4",,0 n (%)
same,"Rash, Grade 3/4",,0 n (%)
same,"Rectal Haemorrhage, Grade 3/4",,0 n (%)
same,"Skin Exfoliation, Grade 3/4",,0 n (%)
same,"Vomiting, Grade 3/4",,0 n (%)
same,"Weight Decreased, Grade 3/4",,0 n (%)
same,"Amylase Increased, All Grades",[1],1 (10.0) n (%)
same,"Amylase Increased, Grade 3/4",[1],1 (10.0) n (%)
same,"Anemia, All Grades",[1],5 (50.0) n (%)
same,"Anemia, Grade 3/4",[1],3 (30.0) n (%)
same,"Aspiration, All Grades",[1],1 (10.0) n (%)
same,"Aspiration, Grade 3/4",[1],1 (10.0) n (%)
same,"Blood Creatinine Increased, All Grades",[1],2 (20.0) n (%)
same,"Blood Creatinine Increased, Grade 3/4",[1],0 n (%)
same,"Blood Uric Acid Increased, All Grades",[1],2 (20.0) n (%)
same,"Blood Uric Acid Increased, Grade 3/4",[1],1 (10.0) n (%)
same,"Diarrhoea, All Grades",[1],3 (30.0) n (%)
same,"Diarrhoea, Grade 3/4",[1],0 n (%)
same,"Febrile Neutropenia, All Grades",[1],2 (20.0) n (%)
same,"Febrile Neutropenia, Grade 3/4",[1],2 (20.0) n (%)
same,"Hyperkalaemia, All Grades",[1],2 (20.0) n (%)
same,"Hyperkalaemia, Grade 3/4",[1],1 (10.0) n (%)
same,"Hyperuricaemia, All Grades",[1],1 (10.0) n (%)
same,"Hyperuricaemia, Grade 3/4",[1],1 (10.0) n (%)
same,"Hypocalcaemia, All Grades",[1],3 (30.0) n (%)
same,"Hypocalcaemia, Grade 3/4",[1],1 (10.0) n (%)
same,"Hypomagnesaemia, All Grades",[1],2 (20.0) n (%)
same,"Hypomagnesaemia, Grade 3/4",[1],0 n (%)
same,"Leukopenia, All Grades",[1],1 (10.0) n (%)
same,"Leukopenia, Grade 3/4",[1],1 (10.0) n (%)
same,"Megakaryocytes Abnormal, All Grades",[1],1 (10.0) n (%)
same,"Megakaryocytes Abnormal, Grade 3/4",[1],1 (10.0) n (%)
same,"Nausea, All Grades",[1],3 (30.0) n (%)
same,"Nausea, Grade 3/4",[1],0 n (%)
same,"Neutropenia, All Grades",[1],4 (40.0) n (%)
same,"Neutropenia, Grade 3/4",[1],3 (30.0) n (%)
same,"Thrombocytopenia, All Grades",[1],5 (50.0) n (%)
same,"Thrombocytopenia, Grade 3/4",[1],5 (50.0) n (%)
same,"Tumour Lysis Syndrome, All Grades",[1],5 (50.0) n (%)
same,"Tumour Lysis Syndrome, Grade 3/4",[1],5 (50.0) n (%)
same,Cycle 1 DLTs,"1A (d1 Q3W) 250 mg, 3 evaluable patients",0
same,Cycle 1 DLTs,"1A (d1 Q3W) 350 mg, 4 evaluable patients",0
same,Cycle 1 DLTs,"1A (d1 Q3W) 400 mg, 9 evaluable patients",4
same,Cycle 1 DLTs,1A total N = 16,4:
same,"Anemia, All Grades",[2],7 (30.4) n (%)
same,"Anemia, Grade 3/4",[2],2 (8.7) n (%)
same,"Asthenia, All Grades",[2],3 (13.0) n (%)
same,"Asthenia, Grade 3/4",[2],1 (4.3) n (%)
same,"Febrile Bone Marrow Aplasia, All Grades",[2],3 (13.0) n (%)
same,"Febrile Bone Marrow Aplasia, Grade 3/4",[2],2 (8.7) n (%)
same,"Leukopenia, All Grades",[2],3 (13.0) n (%)
same,"Leukopenia, Grade 3/4",[2],3 (13.0) n (%)
same,"Nausea, All Grades",[2],6 (26.1) n (%)
same,"Nausea, Grade 3/4",[2],0 n (%)
same,"Neutropenia, All Grades",[2],4 (17.4) n (%)
same,"Neutropenia, Grade 3/4",[2],4 (17.4) n (%)
same,"Thrombocytopenia, All Grades",[2],10 (43.5) n (%)
same,"Thrombocytopenia, Grade 3/4",[2],10 (43.5) n (%)
same,"Tumour Lysis Syndrome, All Grades",[2],4 (17.4) n (%)
same,"Tumour Lysis Syndrome, Grade 3/4",[2],3 (13.0) n (%)
same,"Vomiting, All Grades",[2],3 (13.0) n (%)
same,"Vomiting, Grade 3/4",[2],0 n (%)
same,Cycle 1 DLTs,"1B (d1, d8 Q4W) 150 mg, 6 evaluable patients",1
same,Cycle 1 DLT events,1B total N = 6,Acute Kidney
same,Cycle 1 DLTs,1B total N = 6,1:
same,Cycle 1 DLTs,"2A (2 weeks on/2 weeks off) 20 mg, 3 evaluable patients",0
same,Cycle 1 DLTs,"2A (2 weeks on/2 weeks off) 30 mg, 3 evaluable patients",0
same,Cycle 1 DLTs,2A total N = 6,0
same,"Alopecia, All Grades",[3],3 (12.0) n (%)
same,"Alopecia, Grade 3/4",[3],0 n (%)
same,"Anemia, All Grades",[3],13 (52.0) n (%)
same,"Anemia, Grade 3/4",[3],9 (36.0) n (%)
same,"Decreased Appetite, All Grades",[3],6 (24.0) n (%)
same,"Decreased Appetite, Grade 3/4",[3],0 n (%)
same,"Fatigue, All Grades",[3],5 (20.0) n (%)
same,"Fatigue, Grade 3/4",[3],2 (8.0) n (%)
same,"Febrile Neutropenia, All Grades",[3],8 (32.0) n (%)
same,"Febrile Neutropenia, Grade 3/4",[3],8 (32.0) n (%)
same,"Leukopenia, All Grades",[3],5 (20.0) n (%)
same,"Leukopenia, Grade 3/4",[3],5 (20.0) n (%)
same,"Nausea, All Grades",[3],12 (48.0) n (%)
same,"Nausea, Grade 3/4",[3],0 n (%)
same,"Neutropenia, All Grades",[3],11 (44.0) n (%)
same,"Neutropenia, Grade 3/4",[3],10 (40.0) n (%)
same,"Thrombocytopenia, All Grades",[3],13 (52.0) n (%)
same,"Thrombocytopenia, Grade 3/4",[3],12 (48.0) n (%)
same,"Tumour Lysis Syndrome, All Grades",[3],3 (12.0) n (%)
same,"Tumour Lysis Syndrome, Grade 3/4",[3],3 (12.0) n (%)
same,"Vomiting, All Grades",[3],6 (24.0) n (%)
same,"Vomiting, Grade 3/4",[3],0 n (%)
same,Cycle 1 DLTs,"2C (1 week on/3 weeks off) 45 mg, 8 evaluable patients",1
same,Cycle 1 DLTs,2C total N = 8,1
same,Patients with DLT,Regimen 2C 45 mg,12.5%
same,"Anemia, CTCAE grade 3/4 related to study drug","Regimen 2C 45 mg, 8 patients",37.5%
same,"Febrile neutropenia, CTCAE grade 3/4 related to study drug","Regimen 2C 45 mg, 8 patients",37.5%
same,"Neutropenia, CTCAE grade 3/4 related to study drug","Regimen 2C 45 mg, 8 patients",37.5%
same,Patients with at least one CTCAE grade 3/4 AE related to study drug,"Regimen 2C 45 mg, 8 patients",62.5%
same,"Thrombocytopenia, CTCAE grade 3/4 related to study drug","Regimen 2C 45 mg, 8 patients",62.5%
same,"Treatment-related anemia, all grades","Regimen 2C 45 mg, 8 patients",62.5%
same,"Treatment-related decreased appetite, all grades","Regimen 2C 45 mg, 8 patients",50.0%
same,"Treatment-related febrile neutropenia, all grades","Regimen 2C 45 mg, 8 patients",37.5%
same,"Treatment-related nausea, all grades","Regimen 2C 45 mg, 8 patients",37.5%
same,"Treatment-related neutropenia, all grades","Regimen 2C 45 mg, 8 patients",50.0%
same,"Treatment-related thrombocytopenia, all grades","Regimen 2C 45 mg, 8 patients",62.5%
